What was measured:
[1] = tested on: pentagastrin-stimulated acid secretion of the perfused rat stomach; assay: Pentagastrin-stimulated acid secretion of the perfused rat stomach after intraduodenal administration; type: in vivo; conditions: anesthetized CD rat, dose 1.0 μmol/kg i.d.
Excerpt: Testing of the Secretion on the Perfused Rat Stomach
In Table A which follows, the influence of the compounds of the formula 1 according to aspect 3 of the invention on the pentagastrin-stimulated acid secretion of the perfused rat stomach after intraduodenal
The abdomen of anesthetized rats(CD rat, female, 200-250 g; 1.5 g/kg i.m. urethane) was opened after tracheotomy by a median upper abdominal incision and a PVC catheter was fixed transorally in the esophagus and another via the pylorus such that the ends of the tubes just projected into the gastric lumen. The catheter leading from the pylorus led outward into the right abdominal wall through a side opening.
After thorough rinsing (about 50-100 ml), warm (37° C.) physiological NaCl solution was continuously passed through the stomach (0.5 ml/min, pH 6.8-6.9; Braun-Unita I). The pH (pH meter 632, glass electrode EA 147; φ=5 mm, Metrohm) and, by titration with a freshly prepared 0.01 N NaOH solution to pH 7 (Dosimat 665 Metrohm), the secreted HCl were determined in the effluent in each case collected at an interval of 15 minutes.
The gastric secretion was stimulated by continuous infusion of 1 μg/kg (=1.65 ml/h) of i.v. pentagastrin (left femoral vein) about 30 min after the end of the operation (i.e. after determination of 2 preliminary fractions). The substances to be tested were administered intraduodenally in a 2.5 ml/kg liquid volume 60 min after the start of the continuous pentagastrin infusion.
The body temperature of the animals was kept at a constant 37.8-38° C. by infrared irradiation and heat pads (automatic, stepless control by means of a rectal temperature sensor).

`CCc1cccc(C)c1NCc1nccc2c1nc(C)n2C` [Example 1, (1,2-Dimethyl-1H-imidazo[4,5-c]pyridin-4-ylmethyl)-(2-ethyl-6-methyl-phenyl)-amine] showed a melting point of 141 to 142 °C.

`Cc1nc2c(OCc3ccccc3)nccc2n1C` [Example 7, 4-Benzyloxy-1,2-dimethyl-1H-imidazo[4,5-c]pyridine] gave a melting point of 115 to 116 °C.

For `Cc1nc2c(OC3CCc4ccccc43)nccc2n1C` (centres unmarked) [Example 10, 4-(Indan-1-yloxy)-1,2-dimethyl-1H-imidazo[4,5-c]pyridine], the melting point was 164 to 165 °C.

For `CCc1cccc(C)c1CNc1nc(OC)cc2c1nc(C)n2C` [Example 15, (2-Ethyl-6-methyl-benzyl)-(6-methoxy-1,2-dimethyl-1H-imidazo[4,5-c]pyridin-4-yl)-amine], the melting point was 106 to 107 °C.

In the case of `CCc1cccc(C)c1CNc1nc(C(=O)NC)cc2c1nc(C)n2C` [Example 4, 4-(2-Ethyl-6-methyl-benzylamino)-1,2-dimethyl-1H-imidazo[4,5-c]pyridine-6-carboxylic Acid Methylamide], the “Inhibition of acid secretion” value [1] is reported as greater than 30% and the melting point is reported as 157 to 160 °C.

In the case of `CCOC(=O)c1cc2c(nc(C)n2C)c(NCc2c(C)cccc2CC)n1` [Example 12, 4-(2-Ethyl-6-methyl-benzylamino)-1,2-dimethyl-1H-imidazo[4,5-c]pyridine-6-carboxylic Acid Ethyl Ester], the melting point is reported as > 111 °C (dec.).

Work on `CCc1cccc(C)c1CNc1nc(C(=O)O)cc2c1nc(C)n2C` [Example 13, 4-(2-Ethyl-6-methyl-benzylamino)-1,2-dimethyl-1H-imidazo[4,5-c]pyridine-6-carboxylic Acid] yielded a melting point of 233 to 236 °C.

For `CCc1cccc(C)c1CNc1nc(C(=O)N(C)C)cc2c1nc(C)n2C` [Example 2, 4-(2-Ethyl-6-methyl-benzylamino)-1,2-dimethyl-1H-imidazo[4,5-c]pyridine-6-carboxylic Acid Dimethylamide], the “Inhibition of acid secretion” value [1] was greater than 30% and the melting point was 204 to 206 °C.

Molecule `CCc1cccc(C)c1CNc1nc(C(=O)NCCO)cc2c1nc(C)n2C` [Example 5, 4-(2-Ethyl-6-methyl-benzylamino)-1,2-dimethyl-1H-imidazo[4,5-c]pyridine-6-carboxylic Acid (2-Hydroxy-ethyl)-amide] has a melting point of 208 to 209 °C.

With `Cc1nc2c(OCc3ccccc3Cl)nccc2n1C` [Example 8, 4-(2-Chloro-benzyloxy)-1,2-dimethyl-1H-imidazo[4,5-c]pyridine] the melting point was 180 to 181 °C.

In the case of `CCc1cccc(C)c1CNc1nc(C(=O)N(C)C)cc2[nH]c(C)nc12` [Example 16, 4-(2-Ethyl-6-methyl-benzylamino)-2-methyl-1H-imidazo[4,5-c]pyridine-6-carboxylic Acid Dimethyl-amide], the “Inhibition of acid secretion” value [1] is reported as greater than 30% and the melting point is reported as 207 to 208 °C.

With `CCc1cccc(C)c1CNc1nc(C(N)=O)cc2c1nc(C)n2C` [Example 3, 4-(2-Ethyl-6-methyl-benzylamino)-1,2-dimethyl-1H-imidazo[4,5-c]pyridine-6-carboxylic Acid Amide] the “Inhibition of acid secretion” value [1] was greater than 30% and the melting point was 264 to 266 °C.

`CCc1cccc(C)c1CNc1nc(OCCOC)cc2c1nc(C)n2C` [Example 14, (2-Ethyl-6-methyl-benzyl)-[6-(2-methoxy-ethoxy)-1,2-dimethyl-1H-imidazo[4,5-c]pyridin-4-yl]-amine] gave a melting point of 105 °C.
